Data taken from patent US10179782B2, “Substituted sulfonamide compounds” (Genentech, Inc., priority 2016, dated 2019).
Where two headings read alike, the source gives them in different places.

Biological target: T1, human TRPA1 (Homo sapiens, UniProt O75762)
T1 construct: expressed in transfected cells; host or cells: CHO cells
Experiment: TRPA1 FLIPR Tetra calcium influx assay in CHO cells (block of cinnamaldehyde-induced calcium influx)
Type: cell-based
Settings: CHO cells expressing TRPA1, agonist cinnamaldehyde 75 uM, read-out: hTRPA1 CHO Ca2+ AUC EVO (IC50)
Summary of the method: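 CHO cells expressing TRPA1 were loaded with calcium dye in HBSS/20 mM HEPES, pH 7.4, 0.02% BSA, then given compound for 20 min at room temperature before ~EC80 cinnamaldehyde (75 µM human, 45 µM rat). Block of calcium influx was read on FLIPR Tetra; IC50 fitted with Hill coefficient fixed at 1.5.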

[1] = Table 2, 20 min compound incubation, Hill coefficient fixed to 1.5
[2] = Table 1, with vs without substituent at R2/R3

T1 sequence (O75762 whole entry): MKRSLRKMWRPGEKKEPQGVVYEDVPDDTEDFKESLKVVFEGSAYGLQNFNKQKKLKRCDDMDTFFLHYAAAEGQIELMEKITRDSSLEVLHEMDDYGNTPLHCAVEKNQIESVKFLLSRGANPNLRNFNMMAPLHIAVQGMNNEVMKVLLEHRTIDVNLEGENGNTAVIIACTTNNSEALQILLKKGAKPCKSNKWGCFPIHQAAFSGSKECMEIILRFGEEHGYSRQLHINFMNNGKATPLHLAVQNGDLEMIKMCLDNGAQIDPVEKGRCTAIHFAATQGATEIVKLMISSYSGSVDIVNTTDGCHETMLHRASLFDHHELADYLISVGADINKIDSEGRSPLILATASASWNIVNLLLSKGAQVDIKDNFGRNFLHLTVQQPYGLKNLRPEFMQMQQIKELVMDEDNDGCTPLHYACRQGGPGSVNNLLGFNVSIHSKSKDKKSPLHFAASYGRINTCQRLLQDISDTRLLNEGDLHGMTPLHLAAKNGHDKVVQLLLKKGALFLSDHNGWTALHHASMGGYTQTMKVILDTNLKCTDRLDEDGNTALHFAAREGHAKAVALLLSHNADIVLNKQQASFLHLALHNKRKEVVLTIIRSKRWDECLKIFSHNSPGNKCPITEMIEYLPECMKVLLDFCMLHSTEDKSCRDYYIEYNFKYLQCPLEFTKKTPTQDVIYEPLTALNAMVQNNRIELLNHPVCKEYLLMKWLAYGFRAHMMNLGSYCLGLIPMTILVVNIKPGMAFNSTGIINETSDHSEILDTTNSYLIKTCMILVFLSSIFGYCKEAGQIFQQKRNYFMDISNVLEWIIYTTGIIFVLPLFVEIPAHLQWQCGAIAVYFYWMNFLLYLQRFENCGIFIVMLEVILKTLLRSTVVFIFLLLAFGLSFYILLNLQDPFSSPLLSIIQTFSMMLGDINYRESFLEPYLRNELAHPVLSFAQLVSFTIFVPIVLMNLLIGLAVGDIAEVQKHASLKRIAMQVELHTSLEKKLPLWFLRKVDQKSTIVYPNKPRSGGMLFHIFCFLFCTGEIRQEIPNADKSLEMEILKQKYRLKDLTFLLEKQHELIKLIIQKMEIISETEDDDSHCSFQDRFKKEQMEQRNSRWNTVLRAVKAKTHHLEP

IC50 [1]	IC50 [2]	Compound
0.229 nM		C[C@H]1[C@H](F)C[C@@H](C(=O)NCc2cc(-c3cnc(C(F)(F)F)nc3)ncc2C(F)(F)F)N1S(=O)(=O)c1cc2cc(F)ccc2o1 [Example 153, (2S,4R,5S)-4-fluoro-1-(5-fluorobenzofuran-2-yl)sulfonyl-5-methyl-N-[[5-(trifluoromethyl)-2-[2-(trifluoromethyl)pyrimidin-5-yl]-4-pyridyl]methyl]pyrrolidine-2-carboxamide]
0.89 nM		C[C@H]1[C@H](F)C[C@@H](C(=O)NCc2cc(-c3cnc(C(F)(F)F)nc3)ncc2F)N1S(=O)(=O)c1cc2cc(F)ccc2o1 [Example 154, (2S,4R,5S)-4-fluoro-1-(5-fluorobenzofuran-2-yl)sulfonyl-N-[[5-fluoro-2-[2-(trifluoromethyl)pyrimidin-5-yl]-4-pyridyl]methyl]-5-methyl-pyrrolidine-2-carboxamide]
4.24 nM		C[C@@]1(F)C[C@@H](C(=O)NCc2cc(-c3cnc(C(F)(F)F)nc3)ncc2C(F)(F)F)N(S(=O)(=O)c2ccc(F)cc2)C1 [Example 155, (2S,4R)-4-fluoro-1-(4-fluorophenyl)sulfonyl-4-methyl-N-[[5-(trifluoromethyl)-2-[2-(trifluoromethyl)pyrimidin-5-yl]-4-pyridyl]methyl]pyrrolidine-2-carboxamide]
1.93 nM		C[C@@]1(F)C[C@@H](C(=O)NCc2cc(-c3cnc(C(F)(F)F)nc3)ncc2C(F)(F)F)N(S(=O)(=O)c2cc3cc(F)ccc3o2)C1 [Example 156, (2S,4R)-4-fluoro-1-(5-fluorobenzofuran-2-yl)sulfonyl-4-methyl-N-[[5-(trifluoromethyl)-2-[2-(trifluoromethyl)pyrimidin-5-yl]-4-pyridyl]methyl]pyrrolidine-2-carboxamide]
1200 nM		C[C@H]1[C@H](F)C[C@@H](C(=O)N(COP(=O)(O)O)Cc2cc(-c3cnc(C(F)(F)F)nc3)ncc2F)N1S(=O)(=O)c1ccc(F)cc1 [Example 157, Sodium ((2S,4R,5S)-4-fluoro-N-((5-fluoro-2-(2-(trifluoromethyl)pyrimidin-5-yl)pyridin-4-yl)methyl)-1-((4-fluorophenyl)sulfonyl)-5-methylpyrrolidine-2-carboxamido)methyl phosphate]
2.31 nM		C[C@H]1[C@H](F)C[C@@H](C(=O)NCc2cc(-c3cnc(C(F)(F)F)nc3)ncc2C(F)(F)F)N1S(=O)(=O)c1cncc(F)c1 [Example 159, (2S,4R,5S)-4-fluoro-1-[(5-fluoro-3-pyridyl)sulfonyl]-5-methyl-N-[[5-(trifluoromethyl)-2-[2-(trifluoromethyl)pyrimidin-5-yl]-4-pyridyl]methyl]pyrrolidine-2-carboxamide]
7.27 nM		C[C@H]1[C@H](F)C[C@@H](C(=O)NCc2cc(-c3cnc(C(F)(F)F)nc3)ncc2C(F)(F)F)N1S(=O)(=O)c1ccc(C#N)nc1 [Example 160, (2S,4R,5S)-1-[(6-cyano-3-pyridyl)sulfonyl]-4-fluoro-5-methyl-N-[[5-(trifluoromethyl)-2-[2-(trifluoromethyl)pyrimidin-5-yl]-4-pyridyl]methyl]pyrrolidine-2-carboxamide]
1.96 nM		C[C@H]1[C@H](F)C[C@@H](C(=O)NCc2cc(-c3cnc(C(F)(F)F)nc3)ncc2C(F)(F)F)N1S(=O)(=O)c1ccc(Cl)nc1 [Example 161, (2S,4R,5S)-1-[(6-chloro-3-pyridyl)sulfonyl]-4-fluoro-5-methyl-N-[[5-(trifluoromethyl)-2-[2-(trifluoromethyl)pyrimidin-5-yl]-4-pyridyl]methyl]pyrrolidine-2-carboxamide]
2.34 nM		C[C@H]1[C@H](F)C[C@@H](C(=O)NCc2cc(-c3cnc(C(F)(F)F)nc3)cnc2C(F)F)N1S(=O)(=O)c1ccc(F)cc1 [Example 162, (2S,4R,5S)-N-[[2-(difluoromethyl)-5-[2-(trifluoromethyl)pyrimidin-5-yl]-3-pyridyl]methyl]-4-fluoro-1-(4-fluorophenyl)sulfonyl-5-methyl-pyrrolidine-2-carboxamide]
	2.01 nM	C[C@H]1[C@H](F)C[C@@H](C(=O)NCc2cc(-c3cnc(C(F)(F)F)nc3)ncc2F)N1S(=O)(=O)c1ccc(F)cc1 [drawing 600, (2S,4R,5S)-4-fluoro-1-(4-fluorophenyl)sulfonyl-N-[[5-fluoro-2-[2-(trifluoromethyl)pyrimidin-5-yl]-4-pyridyl]methyl]-5-methyl-pyrrolidine-2-carboxamide]
	21.9 nM	C[C@H]1[C@H](F)C[C@@H](C(=O)NCc2cc(-c3cnc(C(F)(F)F)nc3)ncn2)N1S(=O)(=O)c1ccc(F)cc1 [drawing 602, (2S,4R,5S)-4-fluoro-1-(4-fluorophenyl)sulfonyl-5-methyl-N-[[6-[2-(trifluoromethyl)pyrimidin-5-yl]pyrimidin-4-yl]methyl]pyrrolidine-2-carboxamide]
	4.31 nM	C[C@H]1[C@H](F)C[C@@H](C(=O)NCc2cc(-c3cnc(C(F)(F)F)nc3)c(Cl)cn2)N1S(=O)(=O)c1ccc(F)cc1 [drawing 604, (2S,4R,5S)-N-[[5-chloro-4-[2-(trifluoromethyl)pyrimidin-5-yl]-2-pyridyl]methyl]-4-fluoro-1-(4-fluorophenyl)sulfonyl-5-methyl-pyrrolidine-2-carboxamide]
	19.5 nM	C[C@H]1[C@H](F)C[C@@H](C(=O)NCc2ccnc(-c3cnc(C(F)(F)F)nc3)c2)N1S(=O)(=O)c1ccc(F)cc1 [drawing 606, (2S,4R,5S)-4-fluoro-1-(4-fluorophenyl)sulfonyl-5-methyl-N-[[2-[2-(trifluoromethyl)pyrimidin-5-yl]-4-pyridyl]methyl]pyrrolidine-2-carboxamide]
